Converted amounts (≈) assume the structure as drawn. “Also recorded” adds a separate entry of the source.
Columns and labels:
[1] = Solubility in 10% v/v propylene glycol; assay type: physicochemical; conditions: 10% v/v propylene glycol aqueous solution, aqueous with cosolvent or surfactant or cyclodextrin, thermodynamic from solid, ambient conditions, stirred 5 hours, read-out: Solubility, Concentration
Protocol: The potential of temozolomide esters used as topical and transdermal prodrugs is first proven through studies of their solubility. That is a decreased trend of solubility in an aqueous solution with increase of the length of the ester hydrocarbon alkyl chain of the temozolomide esters. It is clear the solubility constantly decreases from the methyl ester to the octyl ester, while temozolomide itself is 3.0 mg/ml similar to that of the methyl ester. […] Similarly to the esters, the solubility of the temozolomide amide products in the aqueous solution is considerably lower than that of temozolomide.
The solubility of temozolomide and the temozolomide esters was determined in 10% v/v propylene glycol by stirring an excess of the solid products at room temperature for 5 hours. The mixtures were then filtered, diluted with sample solvent and analysed using HPLC.

[2] = In vitro permeation, Franz diffusion cell, silicone membrane; assay type: in vitro ADME; conditions: 37° C., 8 h, FIGS. 3-5
Excerpt: (§1) Jacketed Franz-type diffusion cells were used throughout the study and the barrier (12) (skin or silicone membrane) was mounted between the two chambers (14, 16) (2.8–3.4 cm^2 available surface area) with the dermal side in contact with the receiver solution (FIG. 2). The diffusion chambers (10) comprised a barrier of skin or silicone membrane (12) mounted between two chambers (14, 16). A cap (18) formed the donor compartment (14). The second receptor compartment (16) contained a receptor cell (20) with a stirring bar (22), sampling port (24) and cover (26). The stirring bar (22) was stirred by means of a magnet plate (28) having a rotating magnet. The receptor compartment comprised a water jacket (30) having a water inlet (32) and a water outlet (34).
(§2) Three types of materials were used in permeation studies. • 1. Silicone membrane (Silastic Medical Grade, 500-5, Dow Corning 0.005 in thick) was cut into circular sections (2 cm diameter) and washed with double distilled water prior to use. • 2. Full-thickness rat skin was obtained from Male Wistar rats aged 10 to 12 weeks and weighing 250 to 300 g, which were sacrificed by cervical dislocation, the abdomen shaved and the intact skin removed by dissection. Following removal of fat tissue, the skin was cut into circular pieces and used immediately. • 3. Samples of adult human epidermis were purchased from the Stephen Kirby Skin Bank (UK). The samples were from the leg, were stored at −18° C. and used within one week. Experiments
The membrane (as detailed above) was mounted on the diffusion cell (10), on which the surface area available for diffusion of each cell was about 2.8–3.4 cm^2. The cell cap (18) was placed on the membrane (12), and it was sealed with Parafilm® connecting the cell cap, membrane, and receptor cell. The capacity of each receptor cell was around 25–26 ml, which was filled with receptor solution and was completely in contact with the membrane sheet. During the course of experiment, the solution was continuously stirred by teflon-coated magnetic bar (22) placed in the cell (20). The temperature was maintained at 37° C. by a thermostatic water pump that circulated the water through the jacket (30) surrounding the cell body. The system was allowed to equilibrate under these conditions for half an hour. Finally, the prepared sample solution (2 ml) was added into the donor cap cell, and it was sealed with Parafilm® to minimize the evaporation of donor solution. 1 ml of receptor solution was removed every 30 minutes for 5 hours and then every 60 minutes for a further 3 hours. The volumes withdrawn were always replaced with equal volumes of fresh receptor solution to maintain constant volume. The concentration of each sample solution was determined by using HPLC.
For every sample, six determinations were performed on human and rat skin, and three determinations were carried out through artificial silicone membrane.
As stated above, after the removal of receptor solution, the receiver compartment was refilled with an identical volume of receptor fluid. This causes of the dilution of receptor solution leading to an under determination of the sample concentration. As a consequence, it was necessary to mathematically correct each successive sample concentrations, in the present invention, which was determined by applying the following equation:
(§3) [formula] where Ct is the actual current concentration of drug in the receptor phase at time t, Cmt is the apparent (i.e. measured) current concentration of drug in the receptor phase, Vs is the sample volume withdrawn for analysis, Vr is the volume of receptor solution, and ΣCm is the summed total of the previous measured concentrations.
(§4) Finally, the amount of drug penetrating the skin per unit area was calculated by dividing the obtained concentrations by the surface area available for diffusion cell and this value was different for each individual cell. […]

pig liver esterase = assay: Enzymatic metabolizing study with pig liver esterase (1H NMR); assay type: in vitro ADME; conditions: 37° C., pH 7.4 buffer; ester complete at 10 minutes; amide followed up to 8 hours
Protocol: First the present invention establishes the metabolised process of the temozolomide esters by pig liver esterase in vitro. ^1H NMR spectra 1 (FIG. 1) records the degradation profile of the temozolomide methyl ester under incubation condition (Rathbone D L, 1999). […] Finally, at 10 minutes, the intensity of the singlet at 3.58 ppm grows to the grade similar to the original of the two singlets at 3.63 and 3.65 ppm, which while are completely eliminated. […] This discovery establishes the solid foundation for the temozolomide esters to be considered as the potential anticancer pro-drugs.
Enzymatic metabolizing studies of the temozolomide methyl ester was carried out using pig liver esterase enzyme from Sigma [a suspension in 3.2 M ammonium sulphate solution pH 8; 200 unit/mg protein (14 mg protein/ml)]. • A. To a NMR tube 2 mg of the temozolomide methyl ester was added, followed by 0.2 ml of d6-DMSO, 0.5 ml D2O of pH 7.4 sulphate buffer and finally 50 μl of the enzyme solution. Record a ^1H NMR spectrum immediately, then the mixture was incubated at 37° C. and record a ^1H NMR spectrum at each 5 minutes time interval. […] The samples were dissolved in d6-DMSO in an NMR tube, 50 μl of enzyme solution was added and the solution incubated at 37° C.

[3] = In vitro permeation and metabolism, Franz diffusion cell, human skin; assay type: in vitro ADME
Excerpt: as §1, §2
The membrane (as detailed above) was mounted on the diffusion cell (10), on which the surface area available for diffusion of each cell was about 2.8–3.4 cm^2. The cell cap (18) was placed on the membrane (12), and it was sealed with Parafilm® connecting the cell cap, membrane, and receptor cell. […] The concentration of each sample solution was determined by using HPLC. […]
As stated above, after the removal of receptor solution, the receiver compartment was refilled with an identical volume of receptor fluid. […] As a consequence, it was necessary to mathematically correct each successive sample concentrations, in the present invention, which was determined by applying the following equation:
as §3, §4

B16-BL6 (mouse melanoma) = assay: In vitro tumour cell growth inhibition (MTT), B16-BL6; assay type: cell-based; conditions: Mus musculus, B16-BL6, Table 2 experiment, 96 h
Protocol: (§5) Temozolomide (white powder), temozolomide acid (white powder) and temozolomide-8-carboxylate hexyl (white scale crystal) were made in house. For the estimation of in vitro tumour cell growth inhibition, MV3 (human melanoma), M14 (human melanoma), B16 and B16-BL6 (mouse melanoma), SHG-44, TJ899 and TJ905 (human glioma), MCF-7 (human breast), HCT-8 (human colon), A549 (human non small lung), Bel7402 (human hepatocellulor), and BGC-823 (human stomach) were used. All tumour cells were cultured in RPMI-1640 medium supplemented with 10% fetal bovine serum (FBS) at 37° C. in a humidified 5% CO2 incubator.
(§6) After being harvested from culture flasks, a cell suspension of 1×10^4/ml was made by using 1640 RPMI medium supplemented with 10% fetal bovine serum. 100 μl (contains 1000 tumour cells) of the cell suspension was seeded per well of 96-well flat-bottom Costar culture plates at 37° C. in a humidified 5% CO2 incubator for 24 hrs before introducing drugs. Each tested compounds was made for five different concentrations and 100 μl of the each concentration was introduced into parallel three wells; control wells were added with 100 μl of plain medium alone; fluorouracil (a chemotherapeutic antitumour drug) was used as the positive control. Cells were then incubated for 96 h. Proliferative response and cell death were determined using MTT (3-(4,5-dimethylthiazolyl)-2,5-diphenyl-tetrazolium bromide) assay.
(§7) MTT assay: Following incubation of cells with the tested compounds for 96 h, 100 μl of 0.4 mg/ml MTT in RPMI 1640 was added to each well and the plate was incubated at 37° C. for 4 h. The plate was then centrifuged and followed by removal of medium. 150 μl of DMSO was then added to dissolve formazan crystal. DMSO-added plates were placed on a plate shaker for 5 min and absorbance was measured spectrophotometrically at 540 nm (with reference wavelength at 450 nm) using a Benchmark microtiter plate reader (Bio-Rad 550, Bio-Rad Laboratories, CA, U.S.A.).
(§8) The IC50 was calculated from the curve of the tested compound concentrations against the inhibition rate of the tumour cells. Table 1 summarized the experiment results by using six human cancer cell lines, HCT-8 (colon carcinoma), A549 (non small lung carcinoma), MCF-7 (breast), Bel7402 (hepatocellulor carcinoma), BGC-823 (stomach adenocarcinoma), and MV3 (melanoma). Table 2 summarized the results from the experiment results by using two human melanoma cell lines, MV3 and M14, two mouse melanoma cell lines, B16 and B16-BL6, and three human glioma cell lines, TJ899, SHG-44 and TJ905.

B16 (mouse melanoma) = assay: In vitro tumour cell growth inhibition (MTT), B16; assay type: cell-based; conditions: Mus musculus, Table 2 experiment, 96 h
Protocol: as §5, §6, §7, §8

[4] = Measured log P, octanol/water; assay type: physicochemical; conditions: octanol/water system; read-out: measured Log P (mLog P)
Protocol: Log P values of temozolomide (1) and the temozolomide esters were calculated using TSAR (Oxford Molecular, Oxford, UK), Molecular Modeling Pro (ChemSW, Fairfield, Calif.) and Chem Office 7.0 (CambridgeSoft, Cambridge, UK) programmes. Calculated Log P values were verified for temozolomide and the temozolomide hexyl ester by measuring the octanol/water coefficient (Table 4).

MV3 (human melanoma) = assay: In vitro tumour cell growth inhibition (MTT), MV3; assay type: cell-based; conditions: Homo sapiens, 96 h
Protocol: as §5, §6, §7, §8

TJ905 (human glioma) = assay: In vitro tumour cell growth inhibition (MTT), TJ905; assay type: cell-based; conditions: Homo sapiens, Table 2 experiment, 96 h
Protocol: as §5, §6, §7, §8

SHG-44 (human glioma) = assay: In vitro tumour cell growth inhibition (MTT), SHG-44; assay type: cell-based; conditions: Homo sapiens, SHG-44, Table 2 experiment, 96 h
Protocol: as §5, §6, §7, §8

TJ899 (human glioma) = assay: In vitro tumour cell growth inhibition (MTT), TJ899; assay type: cell-based; conditions: Homo sapiens, Table 2 experiment, 96 h
Protocol: as §5, §6, §7, §8

M14 (human melanoma) = assay: In vitro tumour cell growth inhibition (MTT), M14; assay type: cell-based; conditions: Homo sapiens, Table 2 experiment, 96 h
Protocol: as §5, §6, §7, §8

HCT-8 (human colon) = assay: In vitro tumour cell growth inhibition (MTT), HCT-8; assay type: cell-based; conditions: Table 1 experiment, 96 h
Protocol: as §5, §6, §7
(§9) The IC50 was calculated from the curve of the tested compound concentrations against the inhibition rate of the tumour cells. […]

[5] = system: A549 (human non small lung); assay: In vitro tumour cell growth inhibition (MTT), A549; assay type: cell-based; conditions: Table 1 experiment, 96 h
Protocol: as §5, §6, §7, §9

MCF-7 (human breast) = assay: In vitro tumour cell growth inhibition (MTT), MCF-7; assay type: cell-based; conditions: MCF7, Table 1 experiment, 96 h
Protocol: as §5, §6, §7, §9

BGC-823 (human stomach) = assay: In vitro tumour cell growth inhibition (MTT), BGC-823; assay type: cell-based; conditions: Table 1 experiment, 96 h
Protocol: as §5, §6, §7, §9

[6] = system: Bel7402 (human hepatocellulor); assay: In vitro tumour cell growth inhibition (MTT), Bel-7402; assay type: cell-based; conditions: Table 1 experiment, 96 h
Protocol: as §5, §6, §7, §9

TLX5 lymphoma cell line = conditions: Tsang 1990; cited from earlier work

| Compound | solubility at 5 h [1] | Permeation through synthetic silicone membrane [2] | Degradation to temozolomide acid by pig liver esterase (pig liver esterase) | Permeation through human skin ([3]; 37° C., FIG. 9) | Metabolism within human skin to temozolomide acid ([3]; human skin) | IC50 (B16-BL6 (mouse melanoma)) | IC50 (B16 (mouse melanoma)) | logP [4] | IC50 (MV3 (human melanoma); Table 2 experiment (separate)) | IC50 (TJ905 (human glioma)) | IC50 (SHG-44 (human glioma)) | IC50 (TJ899 (human glioma)) | IC50 (M14 (human melanoma)) | IC50 (HCT-8 (human colon)) | IC50 [5] | IC50 (MCF-7 (human breast)) | IC50 (BGC-823 (human stomach)) | IC50 (MV3 (human melanoma); Table 1 experiment) | IC50 [6] | in vitro IC50 compared with temozolomide (TLX5 lymphoma cell line) |
| --- | --- | --- | --- | --- | --- | --- | --- | --- | --- | --- | --- | --- | --- | --- | --- | --- | --- | --- | --- | --- |
| COC(=O)c1ncn2c(=O)n(C)nnc12 [Temozolomide methyl ester, Methyl 3,4-dihydro-3-methyl-4-oxoimidazo[5,1-d]-1,2,3,5-tetrazine-8-carboxylate] | 3000 µg/mL (≈ 14300 µM) | can not pass through the synthetic membrane easily | completely degraded and released temozolomide acid |  |  |  |  |  |  |  |  |  |  |  |  |  |  |  |  |  |
| CCCCNC(=O)c1ncn2c(=O)n(C)nnc12 [Temozolomide n-butyl amide, 3-Methyl-N-(n-butyl)-4-oxoimidazo[5,1-d]-1,2,3,5-tetrazine-8-carboxamide] | 1800 µg/mL (≈ 7190 µM) |  | no the temozolomide acid was observed; also recorded: gradually decomposed into un-identifiable products without the observation of temozolomide acid | notably better than temozolomide | resistant to metabolism |  |  |  |  |  |  |  |  |  |  |  |  |  |  |  |
| Cn1nnc2c(C(N)=O)ncn2c1=O [Temozolomide, 8-Carbamoyl-3-methylimidazo[5,1-d]-1,2,3,5-tetrazine-4(3H)-one] | 3000 µg/mL (≈ 15500 µM) | can not pass through the synthetic membrane easily; also recorded: lowest permeation |  |  |  | > 100 µg/mL | 61.9 µg/mL (≈ 319 µM) | -0.66 | 7.86 µg/mL (≈ 40.5 µM) | > 100 µg/mL | 9.04 µg/mL (≈ 46.6 µM) | > 100 µg/mL | > 100 µg/mL |  |  |  |  |  |  |  |
| Cn1nnc2c(C(=O)O)ncn2c1=O [temozolomide acid, 3,4-dihydro-3-methyl-4-oxoimidazo[5,1-d]-1,2,3,5-tetrazine-8-carboxylic acid] |  |  |  |  |  | 43.5 µg/mL (≈ 223 µM) | 36.2 µg/mL (≈ 185 µM) |  | 36 µg/mL (≈ 185 µM) | > 100 µg/mL | 7.07 µg/mL (≈ 36.2 µM) | > 100 µg/mL | 99 µg/mL (≈ 507 µM) | 18.5 µg/mL (≈ 94.9 µM) | > 19.5 µg/mL | 14.9 µg/mL (≈ 76.4 µM) | > 19.5 µg/mL | 14.6 µg/mL (≈ 74.9 µM) | 17 µg/mL (≈ 86.9 µM) | almost identical to that of temozolomide |

Reference: US7173021B2, “Synthesis of temozolomide esters as potent anticancer pro-drugs for topical and transdermal applications in treatments of cancers” (Tianjin North Pharm Sci-Tech Co., Ltd., priority 2004, dated 2007)
